Source: patent publication US10513694B2, “Thienopyrrole compounds and uses thereof” (PROMEGA CORPORATION, priority 2015, dated 2019)
“Also recorded” adds a separate entry of the source.

Columns and labels:
Nluc enzyme = assay: Multiplex RealTime-Glo / Caspase-Glo 3/7 in MCF7 cells; format: cell-based
Description: (§1) A) In a Corning 3570 assay plate, MCF7 cells were plated at 1,000 cells/well in 20 μL of cell culture media (EMEM supplemented with 0.01 mg/mL human recombinant insulin and 10% fetal bovine serum) and incubated in overnight. 10 μL of 4× REALTIME-GLO™ MT Cell Viability reagents (Promega Corporation) in media or 10 μL media only was added to the cells. 10 μL of 40 μM staurosporine in media or 10 μL media only (control) was added to the cells. The cells were incubated, and caspase activation monitored at 5.5 hrs post-reagent addition. To monitor caspase activation, 40 μL CASPASE-GLO® 3/7 Assay Reagent (Promega Corporation), either on its own (Caspase) or with 200 μM of JRW-0004, JRW-0013, or JRW-0042, was added. Reactions were incubated at RT, and luminescence was measured at 1 hr 10 min post-reagent addition on Tecan M1000 Pro plate reader.
(§2) When comparing the signal generated from the CASPASE-GLO® reagent in media only versus the signal generated in media containing REALTIME-GLO™ reagent, the signal is higher in the multiplex reaction.

Nluc luciferase = Nluc luciferase (Oplophorus gracilirostris, UniProt Q9GV45, A31E/A60N/A81I/F95D/I117V/K70R/L54V/L99Q/M102K/N193R/P142E/Q151K/Q38R/Q45L/V71I/Y165I); assay: Inhibition of purified Nluc, dose and time dependence; format: biochemical; conditions: pro-substrate PBI-4442, DTT, TERGITOL, RT, various time points
Description: A solution of purified Nluc and an Nluc pro-substrate (PBI-4442, which is described in US 2013/0130289), which is converted to an Nluc substrate upon reduction with DTT, were prepared in PBS buffer, pH 7.5. A 40 mM solution of DTT in PBS, pH 7.5 containing 1% TERGITOL was also prepared. Titrations of the thienopyrrole compounds JRW-0004, WZ141-88, WZ141-86, WZ141-74, WZ141-84, WZ141-89, WZ141-90, and WZ141-91 in the buffer containing DTT and TERGITOL were then prepared. An equal volume of the Nluc/pro-substrate solution was added to the thienopyrrole compound titrations in wells of an assay plate. The reactions were incubated at RT, and luminescence was measured at various time points on the Tecan M100 Pro plate reader (integration time 200 ms). IC50 values were determined using GraphPad Prism 6.03.

[1] = target: T1, Nluc enzyme in REALTIME-GLO™ MT Cell Viability reagent (Oplophorus gracilirostris, UniProt Q9GV45, A31E/A60N/A81I/F95D/I117V/K70R/L54V/L99Q/M102K/N193R/P142E/Q151K/Q38R/Q45L/V71I/Y165I); assay: RealTime-Glo / Caspase-Glo multiplex in K562 cells; format: cell-based; conditions: Trail titration, 200 μM in CASPASE-GLO 3/7 reagent, 2 hrs RT
T1 construct: purchased Promega Corporation
Description: K562 were plated into wells of a Corning 3707 assay plate in 20 μL RPMI media at 2000 cells/well and incubated overnight. A Trail titration was prepared in 10 μL RPMI media and added to cells. Then either 10 μL 4× REALTIME-GLO™ MT Cell Viability reagent (RTCV; Promega Corporation) or media (control) was added to each well. The reactions were incubated at 37° C./5% CO2 at various time points, and luminescence was measured on a Tecan M1000 Pro plate reader. At 5 hrs, 40 μL CASPASE-GLO® 3/7 detection reagent (Promega Corporation) was added with or without 200 μM JRW-0004. The reaction was incubated for 2 hrs at room temperature (RT), and luminescence was measured on the Tecan M1000 Pro plate reader.

Nluc = Nluc (Oplophorus gracilirostris, UniProt Q9GV45, A31E/A60N/A81I/F95D/I117V/K70R/L54V/L99Q/M102K/N193R/P142E/Q151K/Q38R/Q45L/V71I/Y165I); assay: Multiplex RealTime-Glo / Caspase-Glo 3/7 in MCF7 cells; format: cell-based; set-up: purchased Promega Corporation
Description: as §1, §2

purified Nluc enzyme = target: T2, purified Nluc enzyme (Oplophorus gracilirostris, UniProt Q9GV45, A31E/A60N/A81I/F95D/I117V/K70R/L54V/L99Q/M102K/N193R/P142E/Q151K/Q38R/Q45L/V71I/Y165I); format: biochemical; conditions: titration up to 100 μM final; RT 2 hrs; pro-substrate PBI-4442 + DTT
T2 construct: purchased Promega Corporation
Description: In a Corning 3570 assay plate, purified Nluc enzyme (Promega Corporation), 20 mM DTT, and an Nluc pro-substrate (PBI-4442, which is described in US Patent Publication No. 2013/0130289), which is converted to an Nluc substrate upon reduction with DTT, was added. Compound titrations of JRW-0004, JRW-0013, JRW-0006, JRW-0042, JRW-0138, and JRW-0147 were then made (1:2 serial dilution in PBS, 11 points plus no inhibitor control, starting at 200 μM; 100 μM final concentration in reaction). Compound titrations were added in equal volume to the wells of the assay plate. The reactions were incubated at RT for 2 hrs, and luminescence was measured on Tecan M1000 Pro plate reader. Half-maximal inhibitor (thienopyrrole compound) concentrations (IC50s) were determined using GraphPad Prism 6.03.

NANOLUC® enzyme = NANOLUC® enzyme (Oplophorus gracilirostris, UniProt Q9GV45, A31E/A60N/A81I/F95D/I117V/K70R/L54V/L99Q/M102K/N193R/P142E/Q151K/Q38R/Q45L/V71I/Y165I); assay: Inhibitor IC50 determination (NANOLUC enzyme, furimazine); format: biochemical; conditions: IC50 (uM), 0.4 ng/ml NANOLUC enzyme, final furimazine 10 uM (at Km)
[2] = system: firefly luciferase, e.g., ULTRAGLO® luciferase; assay: Specificity of inhibition: firefly luciferase activity; format: biochemical; conditions: 1 μM luciferin in Luciferase Detection Reagent; RT 2 hrs
Description: The following example describes the specificity of disclosed thienopyrrole compounds, JRW-0004, JRW-0013, JRW-0006, JRW-0042, JRW-0138, and JRW-0147, to inhibit Nluc luciferase activity versus firefly luciferase activity, e.g., ULTRAGLO® luciferase. In a Corning 3570 assay plate, a solution containing 1 μM luciferin in Luciferase Detection Reagent (Promega Corporation V865/859) was added to the assay wells. An equal volume of titrations the thienopyrrole compounds, JRW-0004, JRW-0013, JRW-0006, JRW-0042, JRW-0138, and JRW-0147 were then added to the wells. The reactions were incubated at RT for 2 hrs, and luminescence was measured on Tecan M1000 Pro plate reader.

[3] = 10 μM Stauro vs Control, 200 μM compound
[4] = CASPASE-GLO 3/7 reagent with 200 μM compound, 1 hr 10 min

Chain of Nluc (Q9GV45 28-196 with tags or gaps with the stated changes limits assumed): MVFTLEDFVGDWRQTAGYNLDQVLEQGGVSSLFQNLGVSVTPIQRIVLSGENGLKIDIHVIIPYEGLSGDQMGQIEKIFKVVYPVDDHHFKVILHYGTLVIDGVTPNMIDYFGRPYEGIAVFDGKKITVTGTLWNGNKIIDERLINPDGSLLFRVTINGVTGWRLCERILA
Chain of Nluc luciferase (Q9GV45 28-196 with tags or gaps with the stated changes limits assumed): as above
T2 sequence (Q9GV45 28-196 with tags or gaps with the stated changes limits assumed): as above
T1 sequence (Q9GV45 28-196 with tags or gaps with the stated changes limits assumed): as above
Chain of NANOLUC® enzyme (Q9GV45 28-196 with tags or gaps with the stated changes limits assumed): as above

SMILES: CCN(C(=O)Cn1c(C(=O)OC)cc2sccc21)c1cccc(C)c1 [JRW-0004, methyl 4-(2-(ethyl(m-tolyl)amino)-2-oxoethyl)-4H-thieno[3,2-b]pyrrole-5-carboxylate]
- Fold Cont, Media only (Nluc enzyme; [3]): 5.89
- Avg (luminescence), Media only, 10 μM Stauro (Nluc enzyme; [4]): 54589
- Avg (luminescence), Media only, Control (Nluc enzyme; [4]): 9261
- Inhibition of Nluc luciferase, dose and time dependence (FIGS. 4-6) (Nluc luciferase): inhibit Nluc luciferase in a dose- and time-dependent manner
- Inhibition of Nluc enzyme in RealTime-Glo reagent (FIG. 1) [1]: can inhibit the Nluc enzyme
- Fold Cont, Media containing RealTime-Glo (Nluc; [3]): 5.53
- Avg (luminescence), Media containing RealTime-Glo, 10 μM Stauro (Nluc; [4]): 50266
- Avg (luminescence), Media containing RealTime-Glo, Control (Nluc; [4]): 9090
- Inhibition of purified Nluc enzyme (FIG. 2) (purified Nluc enzyme): capable of inhibiting purified Nluc enzyme
- IC50 (NANOLUC® enzyme): 1.1 µM
- Inhibition of firefly luciferase activity (FIG. 3) [2]: do not inhibit firefly luciferase activity; also recorded: did not inhibit the firefly luciferase activity
